The target in experiment [1] is T1, rat lens aldose reductase (RLAR) (Rattus norvegicus, UniProt P07943).
T1 construct: from tissue; host or cells: rat lens (Sprague-Dawley) homogenate, partially purified
The experiment is described as follows: Rat lens aldose reductase (RLAR) inhibitory assay, DL-glyceraldehyde as substrate. The format is biochemical. Particulars: for inhibition at 10 µg/mL: read-out: Inhibition (%) of RLAR; for IC50: least-squares regression of log concentration vs inhibitory activity; for inhibition at 1 µg/mL: concentration 1 μg/mL; for inhibition at 5 µg/mL: concentration 5 μg/mL; for inhibition at 40 µg/mL: concentration 40 μg/mL. As to the method: RLAR activity was assayed according to the methods described by Dufrane et al.. […] The rat lens homogenate was prepared according to the method of Hayman and Kinoshita with some modifications. […] The partially purified material was separated into 1.0 mL aliquots and stored at −40°C. […] Each 1.0 mL cuvette contained equal units of enzyme, 0.05 M sodium phosphate buffer (pH 6.2), and 0.3 mM NADPH with or without 10 mM substrate and inhibitor. For inhibition studies, concentrated stocks of AR inhibitors prepared in DMSO were used, and the final concentration of DMSO was not more than 1%.

Experiment [2] deals with T2, recombinant human aldose reductase (rhAR) (Homo sapiens, UniProt P15121).
T2 construct: purchased Wako Pure Chemical Industries (Osaka, Japan)
Nature of the experiment: Kinetics of rhAR by active compounds (Lineweaver-Burk plots). The conditions noted are these: DL-glyceraldehyde 0.1-1.0 mM. The format is biochemical. The procedure:
Reaction mixtures consisted of 0.1 M potassium phosphate, 0.16 mM NADPH, and […] of rhAR with varied concentrations of substrate DL-glyceraldehyde and AR inhibitor in a total volume of 200 μL. Concentrations were ranged from 0.1 to 1.0 mM for DL-glyceraldehyde. rhAR activity was assayed spectrophotometrically by measuring the decrease in absorption of NADPH at 340 nm after substrate addition using Biotek Power Wave XS spectrophotometer (Biotek instruments, VT, USA). K m and V max of rhAR were determined with varying concentrations of DL-glyceraldehyde as a substrate in the absence and presence of different concentrations of inhibitor by Lineweaver-Burk double reciprocal plots. Inhibitory constant (K i) was derived by plotting slopes obtained from Lineweaver-Burk plots versus inhibitors concentration.

In experiment [3] the test system is galactitol accumulation in rat erythrocytes. The experiment is described as follows: Blood culture and intracellular galactitol measurement. The format is cell-based. The conditions noted are these: 30 mM galactose, 50 μg/mL compound, 3 h; for inhibition at 50 µg/mL: Rattus norvegicus, Erythrocyte. The procedure:
Blood sample was collected in heparin-containing polypropylene tube from 10-week-old male rats. For sugar and sugar alcohol analysis, erythrocytes from heparinized blood were separated from the plasma and buffy coat by centrifuging at 2000 ×g for 10 min. The cells were washed thrice with normal saline (0.9% NaCl) at 4°C. In the final washing, the cells were centrifuged at 2000 ×g for 10 min to obtain a consistently packed cell preparation. The packed cells (1 mL) were then incubated in a Krebs-Ringer bicarbonate buffer (pH 7.4) containing 30 mM galactose in the presence or absence of samples at 37°C in 5% CO2 for 3 h. The erythrocytes were washed with cold saline by centrifuging at 2000 ×g for 10 min, precipitated by adding 6% of cold perchloric acid (3 mL), and centrifuged again at 2000 ×g for 10 min. The supernatant was neutralized with 2.5 M K2CO3 at 4°C and used for galactitol determination. HPLC analysis for sugar and sugar alcohol in blood was performed with this supernatant of red blood cell homogenate after being benzoylated.

For experiment [4], the system named is galactitol accumulation in rat lens. Nature of the experiment: Lens culture and intracellular galactitol measurement. The format is cell-based. The conditions noted are these: 30 mM galactose, compound 5 μg/mL; for Galactitol content μg/lens wet weight (g): mean ± SD of triplicate; for inhibition at 5 µg/mL: Rattus norvegicus. As to the method: Lenses isolated from 10-week-old male rats were cultured for 6 d in TC-199 medium that contained 15% fetal bovine serum 100 U/mL penicillin and 0.1 mg/mL streptomycin under sterile conditions in an atmosphere of 5% CO2 and 95% air at 37°C. Samples were dissolved in DMSO. […] Each lens was placed in well containing 1.0 mL of medium. Lenses from each group were minced in 150 μL of phosphate-buffered saline on ice, homogenized by sonication, and centrifuged at 22.000 g for 10 min at 4°C. The supernatant was filtered through a membrane filter (Ultrafree-MC, nominal molecular weight limit 10,000; Millipore, Bedford, MA, USA) to remove proteins. HPLC analysis for sugar alcohol in lens was performed with this filtrate after being benzoylated.

[5] abbreviates: concentration 10 μg/mL, mean of triplicate.
[6] abbreviates: read-out: IC50 (μg/mL) RLAR (converted).

The values that follow come from publication PMC3613087, “Aldose Reductase Inhibitory Activity of Compounds from Zea mays L” (BioMed Research International, 2013).

Like-named read-outs stand apart in the source and are kept apart here. Bounds are passed on as bounds.

By inhibition is commonly meant the drop in the measured response relative to a control, in per cent. On to `COc1cc(C(=O)O)ccc1O` [Vanillic acid (2), vanillic acid], for which the inhibition at 10 µg/mL in experiment [1] (setting [5]) stood at 20.3%. Besides, the IC50 in experiment [1] (setting [6]) was more than 59.5 µM.

Compound `O=C(O)C=Cc1ccc(O)cc1` [p-hydroxycinnamic acid (4), p-hydroxycinnamic acid] registered an inhibition at 1 µg/mL in experiment [1] (mean of triplicate) of 13.8%. In experiment [1] (mean of triplicate), this compound displayed an inhibition at 5 µg/mL of 43.7%. Besides, the inhibition at 10 µg/mL in experiment [1] (setting [5]) amounted to 77.8%. The IC50 in experiment [1] (read-out: IC50 (μM) RLAR) and in experiment [1] (setting [6]) was 36.7 µM each time.

With `O=C(O)c1c(O)cc(O)cc1O` [2,4,6-trihydroxybenzoic acid (3), 2,4,6-trihydroxybenzoic acid], in experiment [1] (mean of triplicate), the inhibition at 1 µg/mL was found to be 16.9% and the inhibition at 5 µg/mL amounted to 48.1%. Moreover, the inhibition at 10 µg/mL in experiment [1] (setting [5]) stood at 73.7%. In addition, the IC50 in experiment [1] (read-out: IC50 (μM) RLAR) is 34.8 µM. Moreover, the IC50 in experiment [1] (setting [6]) is 34.8 µM.

`OC[C@H]1O[C@@H](Oc2cc3c(O)cc(O)cc3[o+]c2-c2ccc(O)cc2)[C@H](O)[C@@H](O)[C@@H]1O` [Pelargonidin-3-glucoside (9), pelargonidin-3-glucoside]: the “RLAR inhibitory activity (in words)” value in experiment [1] is on record as “did not RLAR inhibitory activity”. In addition, the inhibition at 40 µg/mL in experiment [1] (mean of triplicate) was 13.2%. Further, the IC50 in experiment [1] (setting [6]) was more than 92.3 µM.

`O=c1c(O[C@@H]2O[C@H](CO)[C@@H](O)[C@H](O)[C@H]2O)c(-c2ccc(O)c(O)c2)oc2cc(O)cc(O)c12` [Hirsutrin (6), hirsutrin]: the “Inhibition type of rhAR” value in experiment [2] was “competitive”. For the same compound, in experiment [3], the “Galactitol content (μM) in rat erythrocyte” value (shortened to “Galactitol content (μM)”) is 15.70 µM and the inhibition at 50 µg/mL was approximately 32.5%. Moreover, in experiment [4], the “Galactitol content μg/lens wet weight (g)” value is 558.92 ± 89.12 μg/lens wet weight (g) and the inhibition at 5 µg/mL is approximately 33.8%. Besides, in experiment [1] (mean of triplicate), at 1 µg/mL the inhibition was 27.6% and the inhibition at 5 µg/mL was determined as 76.2%. Moreover, the inhibition at 10 µg/mL in experiment [1] (setting [5]) was 86.7%. Further, in experiment [1] (read-out: IC50 (μM) RLAR), the IC50 is 4.78 µM. Besides, the IC50 in experiment [1] (setting [6]) was 4.78 µM.

As for `O=C(O)c1ccc(O)c(O)c1` [Protochatechuic acid (1), protocatechuic acid], in experiment [1] (setting [6]), the IC50 is more than 64.9 µM. In addition, the inhibition at 10 µg/mL in experiment [1] worked out at 3.22%.

With `O=C(O)CC(=O)OC[C@H]1O[C@@H](Oc2cc3c(O)cc(O)cc3[o+]c2-c2ccc(O)cc2)[C@H](O)[C@@H](O)[C@@H]1O` [pelargonidin 3-(6′′-malonylglucoside)], the “RLAR inhibitory activity (in words)” value in experiment [1] was “did not RLAR inhibitory activity”. The IC50 in experiment [1] (setting [6]) is more than 19.3 µM.

On to `O=C(O)CC(=O)OC[C@H]1O[C@@H](Oc2cc3c(O)cc(O)cc3[o+]c2-c2ccc(O)c(O)c2)[C@H](O)[C@@H](O)[C@@H]1O` [Cyanidin-3-(6′′-malonylglucoside) (11), cyanidin 3-(6′′-malonylglucoside)], for which, in experiment [1] (mean of triplicate), the inhibition at 1 µg/mL stood at 19% and the inhibition at 5 µg/mL is 47.8%. In addition, the inhibition at 10 µg/mL in experiment [1] (setting [5]) came to 68%. For the same compound, in experiment [1] (read-out: IC50 (μM) RLAR), the IC50 was 11.7 µM. Moreover, the IC50 in experiment [1] (setting [6]) was 11.7 µM.

In experiment [1] (mean of triplicate), `COc1cc(/C=C/C(=O)O)ccc1O` [Ferulic acid (5), ferulic acid] registered an inhibition at 1 µg/mL of 11.2% and an inhibition at 5 µg/mL of 49.8%. The inhibition at 10 µg/mL in experiment [1] (setting [5]) is 77.2%. Moreover, the IC50 in experiment [1] (read-out: IC50 (μM) RLAR) amounted to 21.9 µM. The IC50 in experiment [1] (setting [6]) was 21.8 µM.

On to `O=c1c(O)c(-c2ccc(O)c(O)c2)oc2cc(O)cc(O)c12` [Quercetin, quercetin, reference compound], for which, in experiment [3], the “Galactitol content (μM)” value is 16.15 µM and the inhibition at 50 µg/mL is 30.5%. In addition, in experiment [4], the “Galactitol content μg/lens wet weight (g)” value is 448.81 ± 69.43 μg/lens wet weight (g) and 5 µg/mL produced 46.8% inhibition. Moreover, in experiment [1] (mean of triplicate), 1 µg/mL produced 30.3% inhibition and the inhibition at 5 µg/mL is 67.9%. In addition, the inhibition at 10 µg/mL in experiment [1] (setting [5]) worked out at 83%.

Take `COc1cc(-c2oc3cc(O)cc(O)c3c(=O)c2O[C@@H]2O[C@H](CO)[C@@H](O)[C@H](O)[C@H]2O)ccc1O` [3′-methoxyhirsutrin (7), 3′-methoxyhirsutrin]: the “Inhibition type of rhAR” value in experiment [2] is listed as “uncompetitive”. For the same compound, in experiment [3], the “Galactitol content (μM)” value turned out to be 20.19 µM and the inhibition at 50 µg/mL is approximately 12%. For the same compound, in experiment [4], the “Galactitol content μg/lens wet weight (g)” value is 828.35 ± 73.27 μg/lens wet weight (g) and 5 µg/mL produced 1.86% inhibition. In experiment [1] (mean of triplicate), this compound returned an inhibition at 1 µg/mL of 16.4% and an inhibition at 5 µg/mL of 73.7%. The inhibition at 10 µg/mL in experiment [1] (setting [5]) came out at 89.7%. For the same compound, the IC50 in experiment [1] (read-out: IC50 (μM) RLAR) was found to be 5.67 µM. Besides, in experiment [1] (setting [6]), the IC50 was 5.66 µM.

With `OC[C@H]1O[C@@H](Oc2cc3c(O)cc(O)cc3[o+]c2-c2ccc(O)c(O)c2)[C@H](O)[C@@H](O)[C@@H]1O` [Cyanidin-3-glucoside (8), cyanidin-3-glucoside], the “RLAR inhibitory activity (in words)” value in experiment [1] is listed as “did not RLAR inhibitory activity”. Besides, the inhibition at 40 µg/mL in experiment [1] (mean of triplicate) was determined as 47.7%. For the same compound, the IC50 in experiment [1] (setting [6]) was more than 89 µM.

For `COc1cc(-c2[o+]c3cc(O)cc(O)c3cc2O[C@@H]2O[C@H](CO)[C@@H](O)[C@H](O)[C@H]2O)ccc1O` [Peonidin-3-glucoside (10), peonidin-3-glucoside], the “RLAR inhibitory activity (in words)” value in experiment [1] is given as “did not RLAR inhibitory activity”. This compound displayed an inhibition at 40 µg/mL in experiment [1] (mean of triplicate) of 37%. In addition, the IC50 in experiment [1] (setting [6]) was more than 86.3 µM.
